For assay [1], the target named is T1, hyaluronan synthase (Streptococcus pyogenes, UniProt P0C0H0, K60N).
T1 construct: FLAG; made in house; host or cells: Escherichia coli SURE, plasmid pKK223-3
T1 sequence (P0C0H0 1-419 K60N): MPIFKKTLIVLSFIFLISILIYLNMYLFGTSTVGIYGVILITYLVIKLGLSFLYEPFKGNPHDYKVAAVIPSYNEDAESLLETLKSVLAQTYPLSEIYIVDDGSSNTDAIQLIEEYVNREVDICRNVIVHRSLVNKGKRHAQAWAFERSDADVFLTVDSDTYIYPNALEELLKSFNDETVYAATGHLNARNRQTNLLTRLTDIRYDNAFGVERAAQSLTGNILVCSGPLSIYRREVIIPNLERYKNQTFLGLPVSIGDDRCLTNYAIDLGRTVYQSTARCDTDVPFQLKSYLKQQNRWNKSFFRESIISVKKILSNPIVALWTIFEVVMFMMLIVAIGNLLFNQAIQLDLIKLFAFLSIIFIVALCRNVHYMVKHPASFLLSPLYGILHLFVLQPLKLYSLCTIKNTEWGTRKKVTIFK
Kind of assay: Inhibitory concentration IC50 of uridine diphosphate against hyaluronan synthase (HPLC of hyaluronan). It counts as biochemical, Streptococcus equisimilis. The note with it: hyaluronan synthase (B-1) 1.5 U/mL, 40° C., pH 7.5. The procedure:
An enzyme reaction solution (I) containing specific amounts of polysaccharide synthase (B), ribonucleoside diphosphate-monosaccharide (A), ribonucleoside diphosphate, pH adjuster (K), and water is prepared, which is adjusted to a specific temperature and a specific pH. […]
A portion (e.g., 100 μL) of the enzyme reaction solution (I) prepared is extracted immediately after preparation and at certain time intervals (e.g., 5 min). […] Using liquid chromatography (hereinafter abbreviated as HPLC), the amount of polysaccharide in each extracted reaction solution is quantitated. An initial enzyme reaction velocity v (M/s) is calculated from the difference ΔP (ΔP=Ph−P0) in peak areas and a calibration curve based on the peak areas of the polysaccharide, wherein P0 is the peak area immediately after preparation of the enzyme reaction solution (I), and Ph is the peak area after h hour(s) from preparation. […]

Assay [2] has as its target T2, chondroitin synthase (Pasteurella multocida, UniProt Q9CMP0).
T2 construct: FLAG; made in house; host or cells: Escherichia coli SURE, as in Preparation 1
Kind of assay: Inhibitory concentration IC50 against chondroitin synthase. The assay is classed as biochemical. The procedure:
Hyaluronan synthase aqueous solution (B-1) obtained in Preparation 1 was dissolved to a concentration of 1.5 U/mL in 940 μL of aqueous solution 1 (50 mM phosphate buffer (pH of 7.5, 25° C.) containing 5 mM magnesium chloride and 0.05 mM sodium uridine diphosphate) in a 1.5 mL-tube. The tube was allowed to stand at 40° C. for 20 minutes in a constant temperature water bath. To the tube was added 50 μL of temperature-adjusted (40° C.) substrate solution [1-1] (a solution obtained by dissolving uridine diphosphate-glucuronic acid sodium salt and uridine diphosphate-N-acetylglucosamine both to a concentration of 20 mM in buffer solution B (50 mM phosphate buffer, pH of 7.5, 25° C.)). Thereby, enzyme reaction solution (I-1) was obtained. […] The supernatant (80 μL) was analyzed by HPLC under the following conditions, and the peak areas of hyaluronan were recorded. […]
The inhibitory concentration IC50 was measured in a similar manner as in “Measurement of the inhibitory concentration IC50 against hyaluronan synthase”, except that “chondroitin synthase aqueous solution (B-2) obtained in Preparation 11” was used in place of “hyaluronan synthase aqueous solution (B-1) obtained in Preparation 1”, “substrate solution [1-2] […]
The inhibitory concentration IC50 was also determined in a similar manner, except that the amount of chondroitin synthase aqueous solution (B-2) was changed from 1.5 U/mL to 45 U/mL.

The IC50 is the concentration that gives 50% inhibition. Low values mean greater potency in that assay, high ones weaker potency in that assay. `O=c1ccn([C@@H]2O[C@H](COP(=O)(O)OP(=O)(O)O)[C@@H](O)[C@H]2O)c(=O)[nH]1` [uridine diphosphate]: the IC50 in assay [1] amounted to 110 µM; in assay [2] it was 85 µM.
